Assay results as given in patent US9302999B2, “Substituted triazoles as herbicides” (E. I. DU PONT DE NEMOURS AND COMPANY, priority 2012, dated 2016).

What was measured:
Format in all cases: in vivo
[1] = system: bromegrass, downy (downy bromegrass, Bromus tectorum); experiment: Test C pre-/postemergence: bromegrass, downy
Excerpt: (§1) Seeds of plant species selected from blackgrass (Alopecurus myosuroides), bromegrass, downy (downy bromegrass, Bromus tectorum), foxtail, green (green foxtail, Setaria viridis), ryegrass, Italian (Italian ryegrass, Lolium multiflorum), winter wheat (Triticum aestivum), wild oat (Avena fatua), galium (catchweed bedstraw, Galium aparine), bermudagrass (Cynodon dactylon), surinam grass (Brachiaria decumbens), cocklebur (common cocklebur, Xanthium strumarium), corn (Zea mays), large crabgrass (Digitaria sanguinalis), woolly cupgrass (Eriochloa villosa), foxtail, giant (giant foxtail, Setaria faberii), goosegrass (Eleusine indica), johnsongrass (Sorghum halepense), kochia (Kochia scoparia), lambsquarters (Chenopodium album), morningglory (Ipomoea coccinea), nightshade (eastern black nightshade, Solanum ptycanthum), nutsedge, yellow (yellow nutsedge, Cyperus esculentus), pigweed (Amaranthus retroflexus), ragweed (common ragweed, Ambrosia elation), soybean (Glycine max), common (oilseed) sunflower (Helianthus annuus), Russian thistle (Salsola kali) and velvetleaf (Abutilon theophrasti) were planted into a blend of loam soil and sand and treated preemergence with test chemicals formulated in a non-phytotoxic solvent mixture which included a surfactant.
(§2) At the same time, plants selected from these crop and weed species and also barley (winter barley, Hordeum vulgare), canarygrass (Phalaris minor), chickweed (common chickweed, Stellaria media) windgrass (Apera spica-venti) and deadnettle (henbit deadnettle, Lamium amplexicaule) were planted in pots containing Redi-Earth® planting medium (Scotts Company, 14111 Scottslawn Road, Marysville, Ohio 43041) comprising spaghnum peat moss, vermiculite, wetting agent and starter nutrients and treated with postemergence applications of test chemicals formulated in the same manner. Plants ranged in height from 2 to 18 cm (1- to 4-leaf stage) for postemergence treatments.
(§3) Treated plants and controls were maintained in a greenhouse for 13 to 15 days, after which time all species were compared to controls and visually evaluated. Plant response ratings, summarized in Table C, are based on a scale of 0 to 100 where 0 is no effect and 100 is complete control. A dash (-) response means no test result.

[2] = system: bermudagrass (Cynodon dactylon); experiment: Test C pre-/postemergence: bermudagrass
Excerpt: as §1, §2, §3

[3] = system: surinam grass (Brachiaria decumbens); experiment: Test C pre-/postemergence: surinam grass
Excerpt: as §1, §2, §3

[4] = system: goosegrass (Eleusine indica); experiment: Test C pre-/postemergence: goosegrass
Excerpt: as §1, §2, §3

[5] = system: barley (winter barley, Hordeum vulgare); experiment: Test C postemergence: barley
Excerpt: as §2, §3

[6] = system: deadnettle (henbit deadnettle, Lamium amplexicaule); experiment: Test C postemergence: deadnettle
Excerpt: as §2, §3

[7] = system: foxtail, green (green foxtail, Setaria viridis); experiment: Test C pre-/postemergence: foxtail, green
Excerpt: as §1, §2, §3

[8] = system: woolly cupgrass (Eriochloa villosa); experiment: Test C pre-/postemergence: woolly cupgrass
Excerpt: as §1, §2, §3

[9] = system: windgrass (Apera spica-venti); experiment: Test C postemergence: windgrass
Excerpt: as §2, §3

[10] = Postemergence, 31 g ai/ha, scale 0 to 100 (0 no effect, 100 complete control)
[11] = Postemergence, 62 g ai/ha, scale 0 to 100 (0 no effect, 100 complete control)
[12] = Postemergence, 125 g ai/ha, scale 0 to 100, 0 no effect, 100 complete control
[13] = Postemergence, 250 g ai/ha, scale 0 to 100
[14] = Preemergence, 31 g ai/ha, scale of 0 to 100, 0 is no effect, 100 is complete control
[15] = Preemergence, 62 g ai/ha, scale 0 to 100, 0 no effect, 100 complete control
[16] = Preemergence, 125 g ai/ha, scale 0 to 100, 0 no effect, 100 complete control
[17] = Preemergence, 250 g ai/ha, scale 0 to 100, 0 no effect, 100 complete control
[18] = Preemergence, 62 g ai/ha, scale of 0 to 100, 0 is no effect, 100 is complete control
[19] = 31 g ai/ha, scale 0 to 100 (0 no effect, 100 complete control)
[20] = 62 g ai/ha, scale 0 to 100 (0 no effect, 100 complete control)
[21] = 125 g ai/ha, scale 0 to 100, 0 no effect, 100 complete control

FC(F)(F)COc1nn(-c2ccc(C(F)(F)F)cc2)nc1Cc1ccnc(C(F)(F)F)c1 [Compound 14, 4-[[5-(2,2,2-trifluoroethoxy)-2-[4-(trifluoromethyl)phenyl]-2H-1,2,3-triazol-4-yl]methyl]-2-(trifluoromethyl)pyridine]
Plant response rating, Bromegrass, Downy [1, 10]: 30 | Plant response rating, Bromegrass, Downy [1, 11]: 40 | Plant response rating, Bromegrass, Downy [1, 12]: 40 | Plant response rating, Bromegrass, Downy [1, 13]: 45 | Plant response rating, Bromegrass, Downy [1, 14]: 30 | Plant response rating, Bromegrass, Downy [1, 15]: 35 | Plant response rating, Bromegrass, Downy [1, 16]: 60 | Plant response rating, Bromegrass, Downy [1, 17]: 98 | Plant response rating, Bermudagrass [2, 10]: 0 | Plant response rating, Bermudagrass [2, 11]: 15 | Plant response rating, Bermudagrass [2, 12]: 55 | Plant response rating, Bermudagrass [2, 13]: 65 | Plant response rating, Bermudagrass [2, 14]: 98 | Plant response rating, Bermudagrass [2, 15]: 100 | Plant response rating, Bermudagrass [2, 16]: 100 | Plant response rating, Bermudagrass [2, 17]: 100 | Plant response rating, Surinam Grass [3, 10]: 5 | Plant response rating, Surinam Grass [3, 11]: 5 | Plant response rating, Surinam Grass [3, 12]: 30 | Plant response rating, Surinam Grass [3, 13]: 55 | Plant response rating, Surinam Grass [3, 14]: 20 | Plant response rating, Surinam Grass [3, 18]: 45 | Plant response rating, Surinam Grass [3, 16]: 60 | Plant response rating, Surinam Grass [3, 17]: 85 | Plant response rating, Goosegrass [4, 10]: 5 | Plant response rating, Goosegrass [4, 11]: 5 | Plant response rating, Goosegrass [4, 12]: 60 | Plant response rating, Goosegrass [4, 13]: 75 | Plant response rating, Goosegrass [4, 14]: 98 | Plant response rating, Goosegrass [4, 18]: 100 | Plant response rating, Goosegrass [4, 16]: 100 | Plant response rating, Goosegrass [4, 17]: 100 | Plant response rating, Barley [5, 19]: 30 | Plant response rating, Barley [5, 20]: 35 | Plant response rating, Barley [5, 21]: 50 | Plant response rating, Barley ([5]; 250 g ai/ha, scale 0 to 100): 50 | Plant response rating, Deadnettle [6, 19]: 98 | Plant response rating, Deadnettle [6, 20]: 98 | Plant response rating, Deadnettle [6, 21]: 100 | Plant response rating, Deadnettle ([6]; 250 g ai/ha, scale 0 to 100): 100 | Plant response rating, Foxtail, Green [7, 10]: 70 | Plant response rating, Foxtail, Green [7, 12]: 90 | Plant response rating, Foxtail, Green [7, 13]: 90 | Plant response rating, Foxtail, Green [7, 14]: 80 | Plant response rating, Foxtail, Green [7, 18]: 100 | Plant response rating, Foxtail, Green [7, 16]: 100 | Plant response rating, Foxtail, Green [7, 17]: 100 | Plant response rating, Cupgrass, Woolly [8, 10]: 5 | Plant response rating, Cupgrass, Woolly [8, 11]: 5 | Plant response rating, Cupgrass, Woolly [8, 12]: 35 | Plant response rating, Cupgrass, Woolly [8, 13]: 65 | Plant response rating, Cupgrass, Woolly [8, 14]: 5 | Plant response rating, Cupgrass, Woolly [8, 18]: 75 | Plant response rating, Cupgrass, Woolly [8, 16]: 75 | Plant response rating, Cupgrass, Woolly [8, 17]: 80 | Plant response rating, Windgrass [9, 19]: 70 | Plant response rating, Windgrass [9, 20]: 90 | Plant response rating, Windgrass [9, 21]: 95 | Plant response rating, Windgrass ([9]; 250 g ai/ha, scale 0 to 100): 95

Cc1nn(-c2ccc(F)cc2F)nc1Oc1ccnc(C(F)(F)F)c1 [Compound 146]
Plant response rating, Bromegrass, Downy [1, 14]: 0 | Plant response rating, Bromegrass, Downy [1, 18]: 0 | Plant response rating, Bromegrass, Downy [1, 16]: 15 | Plant response rating, Bromegrass, Downy [1, 17]: 80 | Plant response rating, Bermudagrass [2, 14]: 98 | Plant response rating, Bermudagrass [2, 18]: 98 | Plant response rating, Bermudagrass [2, 16]: 98 | Plant response rating, Bermudagrass [2, 17]: 98 | Plant response rating, Surinam Grass [3, 14]: 10 | Plant response rating, Surinam Grass [3, 18]: 20 | Plant response rating, Surinam Grass [3, 16]: 100 | Plant response rating, Surinam Grass [3, 17]: 100 | Plant response rating, Goosegrass [4, 14]: 70 | Plant response rating, Goosegrass [4, 18]: 85 | Plant response rating, Goosegrass [4, 16]: 100 | Plant response rating, Goosegrass [4, 17]: 100 | Plant response rating, Foxtail, Green [7, 14]: 90 | Plant response rating, Foxtail, Green [7, 18]: 90 | Plant response rating, Foxtail, Green [7, 16]: 90 | Plant response rating, Foxtail, Green [7, 17]: 90 | Plant response rating, Cupgrass, Woolly [8, 14]: 40 | Plant response rating, Cupgrass, Woolly [8, 18]: 45 | Plant response rating, Cupgrass, Woolly [8, 16]: 90 | Plant response rating, Cupgrass, Woolly [8, 17]: 100
